Reference: the supplement of paper PMC13380429

Columns and labels:
U2OS [1] = assay: relative viability EC50 (midpoint between 100% and the lowest measured viability); higher = less toxic; settings: 72 h
Caco-2 [2] = assay: as above; settings: 72 h
Calu-3 [3] = assay: as above; settings: 72 h
HepG2 [4] = assay: as above; settings: 72 h
[5] = test system: A549-ACE2 infected with SARS-CoV-2; assay: SARS-CoV-2 infection rate relative to DMSO; higher = more infection; settings: 24 h
[6] = test system: A549-ACE2 infected with SARS-CoV-2; assay: cell count relative to DMSO; higher = less toxic; settings: 24 h
U2OS [7] = assay: cell viability relative to DMSO; higher = less toxic; settings: 72 h
Caco-2 [8] = assay: as above; settings: 72 h
Calu-3 [9] = assay: as above; settings: 72 h
HepG2 [10] = assay: as above; settings: 72 h
U2OS [11] = assay: drug sensitivity score (DSS) for viability; higher = more toxic; extreme values may be limits of the assay; settings: 72 h
Caco-2 [12] = assay: as above; settings: 72 h
Calu-3 [13] = assay: as above; settings: 72 h
HepG2 [14] = assay: as above; settings: 72 h
A549-ACE2 [15] = assay: phospholipidosis EC50; higher = less potent phospholipidosis inducer
[16] = test system: A549-ACE2 infected with SARS-CoV-2; assay: morphology score (similarity to uninfected cells); higher = more like uninfected cells; settings: 24 h
A549-ACE2 [17] = assay: drug-induced phospholipidosis relative to tamoxifen; higher = more phospholipidosis
Vero E6 [18] = assay: relative viability EC50 (midpoint between 100% and the lowest measured viability); higher = less toxic; settings: 72 h
Vero E6 [19] = assay: cell viability relative to DMSO; higher = less toxic; settings: 72 h
Vero E6 [20] = assay: drug sensitivity score (DSS) for viability; higher = more toxic; extreme values may be limits of the assay; settings: 72 h

CN1CC2c3ccccc3Oc3ccc(Cl)cc3C2C1 (configuration not stated) [asenapine]
Settings | drug sensitivity score | relative viability EC50 [µM]
Caco-2 [2] | – | > 10
Caco-2 [12] | 0 | –
Calu-3 [3] | – | > 10
Calu-3 [13] | 0 | –
HepG2 [4] | – | > 10
HepG2 [14] | 0 | –
U2OS [1] | – | > 10
U2OS [11] | 0 | –

Settings | SARS-CoV-2 infection rate [%] | cell count [%] | cell viability [%] | morphology score | phospholipidosis EC50 [µM]
A549-ACE2 [15], 24 h | – | – | – | – | 7.2
A549-ACE2 [15], 48 h | – | – | – | – | 7.65
A549-ACE2 [15], 72 h | – | – | – | – | 9.6
Caco-2 [8], 1 nM | – | – | 94.9 | – | –
Caco-2 [8], 10 nM | – | – | 108 | – | –
Caco-2 [8], 100 nM | – | – | 106 | – | –
Caco-2 [8], 1000 nM | – | – | 108 | – | –
Caco-2 [8], 10000 nM | – | – | 109 | – | –
Calu-3 [9], 1 nM | – | – | 94.9 | – | –
Calu-3 [9], 10 nM | – | – | 96.5 | – | –
Calu-3 [9], 100 nM | – | – | 90.8 | – | –
Calu-3 [9], 1000 nM | – | – | 104 | – | –
Calu-3 [9], 10000 nM | – | – | 89.2 | – | –
HepG2 [10], 1 nM | – | – | 112 | – | –
HepG2 [10], 10 nM | – | – | 106 | – | –
HepG2 [10], 100 nM | – | – | 103 | – | –
HepG2 [10], 1000 nM | – | – | 96.3 | – | –
HepG2 [10], 10000 nM | – | – | 96.7 | – | –
U2OS [7], 1 nM | – | – | 99.5 | – | –
U2OS [7], 10 nM | – | – | 105 | – | –
U2OS [7], 100 nM | – | – | 101 | – | –
U2OS [7], 1000 nM | – | – | 108 | – | –
U2OS [7], 10000 nM | – | – | 98.2 | – | –
[5], 0.3 µM | 94 | – | – | – | –
[5], 3 µM | 59 | – | – | – | –
[5], 10 µM | 32 | – | – | – | –
[5], 30 µM | 30 | – | – | – | –
[6], 0.3 µM | – | 102 | – | – | –
[6], 3 µM | – | 118 | – | – | –
[6], 10 µM | – | 109 | – | – | –
[6], 30 µM | – | 102 | – | – | –
[16], 0.3 µM | – | – | – | 0.2 | –
[16], 3 µM | – | – | – | 0.63 | –
[16], 10 µM | – | – | – | 0.71 | –
[16], 30 µM | – | – | – | 0.39 | –

drug-induced phospholipidosis [%], A549-ACE2 [17]
Settings | 0.3 µM | 0.833333 µM | 3.33333 µM | 6.66667 µM | 10 µM | 30 µM
24 h | 0.93 | 1.66 | 23.3 | 56.2 | 82.5 | 115
48 h | 2.52 | 0.05 | 14.9 | 49 | 77.2 | 111
72 h | 4.59 | 1.7 | 16.8 | 43.5 | 70.2 | 117

COCC(=O)O[C@]1(CCN(C)CCCc2nc3ccccc3[nH]2)CCc2cc(F)ccc2[C@@H]1C(C)C [mibefradil]
Settings | drug sensitivity score | relative viability EC50 [µM]
Caco-2 [2] | – | 1.61
Caco-2 [12] | 4.9 | –
Calu-3 [3] | – | 3.24
Calu-3 [13] | 5.1 | –
HepG2 [14] | 2.8 | –
U2OS [11] | 3 | –
Vero E6 [18] | – | > 10
Vero E6 [20] | 0 | –

Settings | SARS-CoV-2 infection rate [%] | cell count [%] | cell viability [%] | morphology score | phospholipidosis EC50 [µM]
A549-ACE2 [15], 24 h | – | – | – | – | 2.94
A549-ACE2 [15], 48 h | – | – | – | – | 4.35
A549-ACE2 [15], 72 h | – | – | – | – | 7.83
Caco-2 [8], 1 nM | – | – | 101 | – | –
Caco-2 [8], 10 nM | – | – | 90.3 | – | –
Caco-2 [8], 100 nM | – | – | 101 | – | –
Caco-2 [8], 1000 nM | – | – | 87.4 | – | –
Caco-2 [8], 10000 nM | – | – | 45.8 | – | –
Calu-3 [9], 1 nM | – | – | 99.8 | – | –
Calu-3 [9], 10 nM | – | – | 105 | – | –
Calu-3 [9], 100 nM | – | – | 109 | – | –
Calu-3 [9], 1000 nM | – | – | 101 | – | –
Calu-3 [9], 10000 nM | – | – | 7.2 | – | –
HepG2 [10], 1 nM | – | – | 99 | – | –
HepG2 [10], 10 nM | – | – | 97.7 | – | –
HepG2 [10], 100 nM | – | – | 88.2 | – | –
HepG2 [10], 1000 nM | – | – | 98.3 | – | –
HepG2 [10], 10000 nM | – | – | 50.3 | – | –
U2OS [7], 1 nM | – | – | 103 | – | –
U2OS [7], 10 nM | – | – | 97.9 | – | –
U2OS [7], 100 nM | – | – | 98.7 | – | –
U2OS [7], 1000 nM | – | – | 90.9 | – | –
U2OS [7], 10000 nM | – | – | 65.6 | – | –
Vero E6 [19], 1 nM | – | – | 94.7 | – | –
Vero E6 [19], 10 nM | – | – | 98.8 | – | –
Vero E6 [19], 100 nM | – | – | 92.9 | – | –
Vero E6 [19], 1000 nM | – | – | 91.4 | – | –
Vero E6 [19], 10000 nM | – | – | 89 | – | –
[5], 0.3 µM | 102 | – | – | – | –
[5], 3 µM | 32 | – | – | – | –
[5], 10 µM | 9 | – | – | – | –
[5], 30 µM | 84 | – | – | – | –
[6], 0.3 µM | – | 100 | – | – | –
[6], 3 µM | – | 125 | – | – | –
[6], 10 µM | – | 119 | – | – | –
[6], 30 µM | – | 12 | – | – | –
[16], 0.3 µM | – | – | – | -0.1 | –
[16], 3 µM | – | – | – | 0.85 | –
[16], 10 µM | – | – | – | 0.71 | –
[16], 30 µM | – | – | – | -0.08 | –

drug-induced phospholipidosis [%], A549-ACE2 [17]
Settings | 0.3 µM | 0.833333 µM | 3.33333 µM | 6.66667 µM | 10 µM | 30 µM
24 h | -2.56 | 5.28 | 65.2 | 87.9 | 115 | 45.3
48 h | 0.45 | 7.22 | 63.5 | 96.7 | 118 | –
72 h | 4.04 | 7.42 | 45.4 | 91.8 | 122 | –

C[C@@H]1CN(CCCn2c3ccccc3c3ccccc32)C[C@H](C)N1 [rimcazole]
Settings | drug sensitivity score | relative viability EC50 [µM]
Caco-2 [2] | – | > 10
Caco-2 [12] | 0.2 | –
Calu-3 [13] | 3.5 | –
HepG2 [4] | – | > 10
HepG2 [14] | 0.6 | –
U2OS [1] | – | > 10
U2OS [11] | 0 | –
Vero E6 [18] | – | > 10
Vero E6 [20] | 0.7 | –

Settings | SARS-CoV-2 infection rate [%] | cell count [%] | cell viability [%] | morphology score | phospholipidosis EC50 [µM]
A549-ACE2 [15], 24 h | – | – | – | – | 2.9
A549-ACE2 [15], 48 h | – | – | – | – | 5.12
A549-ACE2 [15], 72 h | – | – | – | – | 5.72
Caco-2 [8], 1 nM | – | – | 96 | – | –
Caco-2 [8], 10 nM | – | – | 99.5 | – | –
Caco-2 [8], 100 nM | – | – | 93.4 | – | –
Caco-2 [8], 1000 nM | – | – | 90.8 | – | –
Caco-2 [8], 10000 nM | – | – | 87 | – | –
Calu-3 [9], 1 nM | – | – | 103 | – | –
Calu-3 [9], 10 nM | – | – | 88.6 | – | –
Calu-3 [9], 100 nM | – | – | 100 | – | –
Calu-3 [9], 1000 nM | – | – | 90.2 | – | –
Calu-3 [9], 10000 nM | – | – | 60.1 | – | –
HepG2 [10], 1 nM | – | – | 106 | – | –
HepG2 [10], 10 nM | – | – | 105 | – | –
HepG2 [10], 100 nM | – | – | 98 | – | –
HepG2 [10], 1000 nM | – | – | 106 | – | –
HepG2 [10], 10000 nM | – | – | 76.4 | – | –
U2OS [7], 1 nM | – | – | 100 | – | –
U2OS [7], 10 nM | – | – | 98.1 | – | –
U2OS [7], 100 nM | – | – | 105 | – | –
U2OS [7], 1000 nM | – | – | 96.8 | – | –
U2OS [7], 10000 nM | – | – | 96.4 | – | –
Vero E6 [19], 1 nM | – | – | 97.9 | – | –
Vero E6 [19], 10 nM | – | – | 97.9 | – | –
Vero E6 [19], 100 nM | – | – | 94.4 | – | –
Vero E6 [19], 1000 nM | – | – | 98.2 | – | –
Vero E6 [19], 10000 nM | – | – | 81.7 | – | –
[5], 0.3 µM | 104 | – | – | – | –
[5], 3 µM | 43 | – | – | – | –
[5], 10 µM | 13 | – | – | – | –
[5], 30 µM | 41 | – | – | – | –
[6], 0.3 µM | – | 108 | – | – | –
[6], 3 µM | – | 122 | – | – | –
[6], 10 µM | – | 117 | – | – | –
[6], 30 µM | – | 101 | – | – | –
[16], 0.3 µM | – | – | – | 0.08 | –
[16], 3 µM | – | – | – | 0.76 | –
[16], 10 µM | – | – | – | 0.81 | –
[16], 30 µM | – | – | – | 0.11 | –

drug-induced phospholipidosis [%], A549-ACE2 [17]
Settings | 0.3 µM | 0.833333 µM | 3.33333 µM | 6.66667 µM | 10 µM | 30 µM
24 h | 4.49 | 10.3 | 68.5 | 99.3 | 102 | 118
48 h | 7.19 | 8.94 | 52.5 | 90.8 | 105 | 135
72 h | 8.99 | 8.76 | 45.8 | 87 | 106 | 137
